# Source: patent publication US12398185B2, “Peptoid blocking O-GlcNAcylated NF-kappaB c-Rel” (Case Western Reserve University, priority 2019, dated 2025)
# Non-standard residues stand in square brackets, D forms with d. Residues, ends and D or L forms follow the SMILES beside them. NFurfurylGly = O=C(O)CNCc1ccco1; Gly(N-CH2CH2OH) = O=C(O)CNCCO; Nphe = O=C(O)CNCc1ccccc1; NPrGly = CCCNCC(=O)O
# Tests used:
# Jurket cells = assay: Toxicity, cell death by propidium iodide staining and flow cytometry, Jurkat; format: cell-based
# Method: (§1) The toxicity of Compound 2 was studied at 100 μM and 200 μM concentrations in Jurket cells (FIG. 5, left), BJAB B cells (FIG. 5, middle left), human primary CD4^+ T cells (FIG. 5, middle right), and human primary monocytes (FIG. 5, right). Cell death was assessed by propidium iodide staining and flow cytometry. […] Treatment with cycloheximide (CHX) (Sigma Aldrich), a generic inhibitor of translation, was used as a positive control for cell death induction.
# BJAB B cells = assay: Toxicity, cell death by propidium iodide staining and flow cytometry, BJAB; format: cell-based
# Method: as §1
# [1] = test system: human primary CD4+ T cells; assay: Toxicity, cell death by propidium iodide staining and flow cytometry, primary CD4+ T cells; format: cell-based
# Method: as §1
# O-GlcNAcylated c-Rel [2] = molecular target: T1, O-GlcNAcylated c-Rel (Homo sapiens, UniProt Q04864); assay: TCR-induced O-GlcNAcylation-dependent GMCSF and IL-2 expression in Jurkat T cells; format: cell-based; conditions: for expression of GMCSF / expression of IL-2: Compound 2 100 μM and 200 μM, 16 hours, FIG. 3
# T1 construct: endogenous in cells; host or cells: Jurkat T cells
# T1 sequence (Q04864 1-619): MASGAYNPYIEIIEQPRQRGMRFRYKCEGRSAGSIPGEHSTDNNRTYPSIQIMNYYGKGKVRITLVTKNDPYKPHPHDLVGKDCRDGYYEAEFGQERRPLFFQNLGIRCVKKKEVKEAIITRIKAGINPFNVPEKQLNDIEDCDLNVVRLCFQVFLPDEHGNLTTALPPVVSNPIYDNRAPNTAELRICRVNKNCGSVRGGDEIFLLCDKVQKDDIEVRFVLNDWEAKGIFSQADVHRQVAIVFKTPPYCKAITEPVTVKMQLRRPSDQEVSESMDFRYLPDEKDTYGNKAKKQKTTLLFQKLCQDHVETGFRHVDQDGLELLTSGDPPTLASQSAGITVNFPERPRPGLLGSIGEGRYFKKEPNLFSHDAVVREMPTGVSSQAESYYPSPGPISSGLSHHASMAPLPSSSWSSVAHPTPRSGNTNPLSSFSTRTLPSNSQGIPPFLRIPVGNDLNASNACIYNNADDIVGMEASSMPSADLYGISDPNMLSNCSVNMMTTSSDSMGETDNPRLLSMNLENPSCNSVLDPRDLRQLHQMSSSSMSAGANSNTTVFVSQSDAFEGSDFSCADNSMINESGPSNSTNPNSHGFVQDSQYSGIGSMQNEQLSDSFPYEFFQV
# Method: It is further known that a mutation of c-Rel at S350 completely abrogates T cell receptor (TCR)-induced O-GlcNAcylation-dependent expression of GMCSF and IL-2 (Ramakrishnan, 2013). Thus, the specific inhibition of c-Rel O-GlcNAcylation by Compound 2 was studied. Jurkat cells were grown in RPMI medium at 1×10^6 cells/2 mL. The cells were treated with compound 2 (100 μM and 200 μM) for 16 hours. Cell death was assessed by propidium iodide (Biolegend) staining and flow cytometry. Following treatment with Compound 2, the resulting expression of GMCSF and IL-2 was measured. […] Further, treatment with Compound 2 specifically affected only the O-GlcNAcylation-dependent enhancement of IL-2 and GMCSF expression.
# The range of concentrations at which Compound 2 is effective in suppression O-GlcNAcylation c-Rel function was studied. Jurket cells were exposed to Compound 2 in concentrations of 2 mM, 500 μM, 200 μM, 100 μM, 50 μM and 10 μM peptoid on TCR-induced GMCSF expression.
# The effect of the scrambled peptoid, Compound 3, was also studied (FIG. 3, bottom right panel).
# O-GlcNAcylated c-Rel [3] = molecular target: T2, O-GlcNAcylated c-Rel (Homo sapiens, UniProt Q04864); assay: TCR-induced O-GlcNAcylated-c-Rel-dependent gene expression in primary CD4+ T cells; format: cell-based; conditions: 100 μM
# T2 construct: endogenous in cells; host or cells: primary CD4+ T cells from human PBMC
# T2 sequence (Q04864 2-587 isoform Q04864-2): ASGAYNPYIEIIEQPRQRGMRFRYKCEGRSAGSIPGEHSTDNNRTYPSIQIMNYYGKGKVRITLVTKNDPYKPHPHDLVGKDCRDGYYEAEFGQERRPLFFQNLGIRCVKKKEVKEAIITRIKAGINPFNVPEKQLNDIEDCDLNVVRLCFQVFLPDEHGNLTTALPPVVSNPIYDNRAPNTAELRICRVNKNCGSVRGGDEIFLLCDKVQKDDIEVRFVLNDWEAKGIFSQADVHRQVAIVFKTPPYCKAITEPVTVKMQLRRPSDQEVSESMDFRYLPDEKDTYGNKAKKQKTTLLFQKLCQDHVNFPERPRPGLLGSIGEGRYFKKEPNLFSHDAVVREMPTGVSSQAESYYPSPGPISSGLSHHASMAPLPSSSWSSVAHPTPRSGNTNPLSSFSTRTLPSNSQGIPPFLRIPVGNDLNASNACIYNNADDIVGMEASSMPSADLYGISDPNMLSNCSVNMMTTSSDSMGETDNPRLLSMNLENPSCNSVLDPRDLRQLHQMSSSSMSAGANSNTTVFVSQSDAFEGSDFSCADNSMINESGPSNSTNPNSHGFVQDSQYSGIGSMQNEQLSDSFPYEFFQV
# Method: The effect of Compound 2 was studied in primary CD4^+ T cells isolated from human peripheral blood mononuclear cells. CD4+ T cells were […] were isolated by magnetic sorting (Miltenyi Biotec) and cultured in supplemented RPMI medium. Cells were treated with 100 μM of Compound 2 twice—at the start of the experiment and at 24 hrs.
# B cells (BJAB) = assay: Non-specific activity in B cells; format: cell-based
# Method: (§2) Compound 2 was further studied in B cells (BJAB) and macrophages (RAW 264.7). BJAB cells were grown in RPMI medium and RAW 264.7 cells were grown in DMEM medium supplemented with 100 U/mL penicillin/streptomycin, 4 mM L-glutamine and 10% fetal bovine serum.
# macrophages (RAW 264.7) = assay: Non-specific activity in macrophages; format: cell-based; conditions: RAW 264.7 cells
# Method: as §2
# human primary monocytes = assay: Toxicity, cell death by propidium iodide staining and flow cytometry, primary monocytes; format: cell-based; conditions: 100 μM and 200 μM, 40 hours post-treatment
# Method: as §1
# c-Rel = molecular target: T3, c-Rel (Homo sapiens, UniProt Q04864); assay: Nuclear translocation of c-Rel, Western blot of cytoplasmic and nuclear extracts; format: cell-based; conditions: FIG. 6 top
# T3 construct: endogenous in cells
# T3 sequence (Q04864 1-619): T1 sequence (Q04864 1-619)
# Method: Activation of c-Rel involves signal-induced translocation of c-Rel from the cytoplasm to the nucleus and its subsequent DNA binding and gene expression. Thus, the effect of treatment with Compound 2 and Compound 3 (comparative) on nuclear translocation of c-Rel were examined. Cytoplasmic and nuclear extracts were prepared and Western blotting was performed as described in DeJesus, T. J. and Ramakrishnan, P. “NF-kappaB c-Rel Dictates the Inflammatory Threshold by Acting as a Transcriptional Repressor.” iScience 23, 100876 (2020).
# O-GlcNAcylated c-Rel [4] = molecular target: T1, O-GlcNAcylated c-Rel; assay: Oligonucleotide pull down assay, c-Rel binding to CD28RE DNA; conditions: Jurket cells, anti-CD3/CD28 and Thiamet-G; Compound 2 at 50 μM
# Method: Oligonucleotide pull down assays were performed to examine whether Compound 2 binds to O-GlcNAcylated c-Rel and thus, competitively prevents its binding to CD28RE. Jurket cells were treated with anti-CD3/CD28 antibodies to trigger TCR activation and c-Rel nuclear translocation. Cells were contacted with Thiamet-G (an O-GlcNAse inhibitor) (Sigma Aldrich) to enhance cellular O-GlcNAcylation.
# Leukemia K562 cells = assay: Cell death in leukemia K562 cells; format: cell-based; conditions: Compound 2 at 100 μM; compared with OSMI1 at 50 μM; FIG. 8
# Method: The effect of Compound 2 on […] cells was studied. Leukemia K562 cells were treated with HBP inhibitor OSMI1 (50 μM) or Compound 2 (100 μM). Scrambled peptoid Compound 3 was used as a control.
# [5] = human primary T-cells, treated twice (start and 24 hrs)
compound,measurement,setting,value
"C[C@@H]1C[C@@H]([C@H](O)CC2CC(=O)NC(=O)C2)C(=O)[C@@H](C)C1 [CHX, cycloheximide, reference compound]","cell death, positive control","Jurket cells; Jurkat cells, 5 μg/mL, 16 hours post-treatment",significant cell death
same,"cell death, positive control","BJAB B cells; 5 μg/mL, 16 hours post-treatment",significant cell death
same,"cell death, positive control","[1]; human primary T cells, 5 μg/mL, 16 hours post-treatment",significant cell death
CCCNCC(=O)N(CC(=O)N(CC(=O)N(CCO)CC(N)=O)Cc1ccccc1)Cc1ccco1 [Compound 2] (H-[NPrGly][NFurfurylGly][Nphe][Gly(N-CH2CH2OH)]-NH2),TCR-induced expression levels of IL-2 and GMCSF (not O-GlcNAcylation-dependent),O-GlcNAcylated c-Rel [2],did not block
same,O-GlcNAcylation-dependent GMCSF expression,O-GlcNAcylated c-Rel [2]; 200 μM,near complete suppression
same,GMCSF expression levels at higher concentrations,O-GlcNAcylated c-Rel [2]; 500 μM and 2 mM,did not further decrease
same,expression of GMCSF,O-GlcNAcylated c-Rel [2],significantly decreased
same,expression of IL-2,O-GlcNAcylated c-Rel [2],significantly decreased
same,TCR-induced O-GlcNAcylation-dependent increase in expression of GMCSF,O-GlcNAcylated c-Rel [3]; [5],effectively and significantly decreased
same,TCR-induced O-GlcNAcylation-dependent increase in expression of IL-2,O-GlcNAcylated c-Rel [3]; [5],effectively and significantly decreased
same,"TCR-induced expression level of GMCSF, IL-2 and other NF-kappaB-induced genes such as A20 and I-kappa-B-alpha",O-GlcNAcylated c-Rel [3]; primary T cells,did not block
same,non-specific activity,B cells (BJAB),does not exhibit any non-specific activity
same,non-specific activity,macrophages (RAW 264.7),does not exhibit any non-specific activity
same,cell death,"Jurket cells; Jurket cells, 100 μM and 200 μM, 40 hours post-treatment",non-significant cell death
same,cell death,"BJAB B cells; 100 μM and 200 μM, 40 hours post-treatment",non-significant cell death
same,cell death,"[1]; human primary CD4+ T cells, 100 μM and 200 μM, 40 hours post-treatment",non-significant cell death
same,cell death,human primary monocytes,non-significant cell death
same,change in nuclear c-Rel levels,c-Rel,no significant change
same,binding of c-Rel to CD28RE DNA,O-GlcNAcylated c-Rel [4],reduced the binding of c-Rel
same,K562 cell death,Leukemia K562 cells,nearly comparable to that caused by known OGT inhibitor OSMI1
CCCN(CC(=O)N(CC(N)=O)Cc1ccccc1)C(=O)CN(CCO)C(=O)CNCc1ccco1 [Compound 3] (H-[NFurfurylGly][Gly(N-CH2CH2OH)][NPrGly][Nphe]-NH2),"inhibitory effect on GMCSF expression, scrambled peptoid control",O-GlcNAcylated c-Rel [2]; FIG. 3 bottom right,no inhibitory effect
same,change in nuclear c-Rel levels,c-Rel,no significant change
same,binding of c-Rel to CD28RE DNA,O-GlcNAcylated c-Rel [4],did not block the binding of c-Rel
same,K562 cell death,Leukemia K562 cells,no significant cell death
"COc1ccccc1[C@@H](NS(=O)(=O)c1ccc2[nH]c(=O)ccc2c1)C(=O)N(Cc1ccco1)Cc1cccs1 [OSMI1, reference compound]",expression of GMCSF,O-GlcNAcylated c-Rel [2],well below the TCR-induced levels
same,expression of IL-2,O-GlcNAcylated c-Rel [2],well below the TCR-induced levels
